Measurements: patent US20050276764A1, “Topical use of bis-arylimidazo[1,2-a]thiolane derivatives” (Beiersdorf AG, priority 2002, published 2005)

Experiments:
Format in all cases: cell-based
[1] = tested on: 3T3 cells; assay: 3T3 NRU Phototoxicity Assay (COLIPA Validation Ring Study 1997), neutral red absorption; conditions: for NR50 irradiated / NR50 non-irradiated: 3T3 cells, concentration at which neutral red absorption has fallen to 50% of the check value; for NR50 irradiated: UV-irradiated cultures; for NR50 non-irradiated: non-irradiated cultures; for Quotient non-irradiated/irradiated PIF: ratio of NR50 non-irradiated to irradiated, the lower the quotient, the lower the phototoxicity; for Phototoxicity in comparison to the non-oxidized comparative compound: photocytotoxicity tests, versus 4,5-bis(4-methoxyphenyl)-imidazo[1,2-a]thiolane
Procedure: The photocytotoxicity of 4,5-bis(4-methoxyphenyl)-imidazo[1,2-a]thiolane-1-oxide and 4,5-bis(4-methoxyphenyl)-imidazo[1,2-a]thiolane-1-dioxide in comparison to 4,5-bis(4-methoxyphenyl)-imidazo[1,2-a]thiolane according to standard protocol “3T3 NRU Phototoxicity Assay” of the COLIPA Validation Ring Study of 1997 is shown in FIG. 1.
In the test method used, the change to the neutral red absorption of 3T3 cells is measured by UV irradiation. Only vital cells absorb the dye, a reduced absorption thus indicates a toxicity of the test substance added. The so-called NR50 value is typically determined for evaluation, i.e. those concentrations of the test substance for which the neutral red absorption has fallen to 50% of the check value. In order to determine the phototoxicity, this value is determined for non-irradiated and irradiated cultures and put in a ratio. The lower the quotient, the lower the phototoxicity (see Table 1).

[2] = tested on: LTB4 release by human neutrophile granulocytes stimulated with fMLP; assay: Release of LTB4 by fMLP-stimulated human neutrophile granulocytes; conditions: for Inhibition of LTB4 release: human neutrophile granulocytes, fMLP-stimulated, supernatant LTB4 2 hours later, FIG. 3
Procedure: A second test method was used to determine the influence of imidazoles on the release of LTB4 by stimulated granulocytes. Human neutrophile granulocytes from the peripheral blood were isolated, cultured and stimulated for LTB4 production with formylated methionyl-leucyl-phenylalanine (fMLP). Specifically, human neutrophile granulocytes were stimulated with fMLP and 2 hours later the supernatant LTB4 content was determined. Either BayX1005 with standard effects or dilutions of DKH derivatives were added to the fMLP-stimulated cultures. Non-stimulated cultures and cultures only stimulated with fMLP were measured as a control test.

[3] = tested on: prostaglandin E2 (PGE2) production in human fibroblasts stimulated with LPS; assay: Inhibition of LPS-induced PGE2 production in human fibroblasts; conditions: for Inhibition of PGE2 production: human fibroblasts, LPS-stimulated, supernatant PGE2 24 hours later, FIG. 2
Procedure: The influence of 4,5-bis(4-methoxyphenyl)-imidazo[1,2-a]thiolane-1-oxide and 4,5-bis(4-Methoxyphenyl)-imidazo[1,2-a]thiolane-1-dioxide in comparison to 4,5-bis(4-methoxyphenyl)-imidazo[1,2-a]thiolane on eicosanoid production is illustrated in FIG. 2. For the samples in FIG. 2, human fibroblasts were stimulated with LPS and 24 hours later the supernatant PGE2 content was determined. Either Diclofenac with standard effects or dilutions of DKH derivatives were added to the LPS-stimulated cultures. Non-stimulated cultures and cultures only stimulated with LPS were measured as a control test.
Human fibroblasts in culture were induced to release prostaglandin E2 (PGE2) by means of lipopolysaccharide (LPS). Inhibition of this PGE2 production by imidazoles was then determined in the test.

COc1ccc(-c2nc3n(c2-c2ccc(OC)cc2)CCS3)cc1 [4,5-bis(4-methoxyphenyl)-imidazo[1,2-a]thiolane, reference compound]
NR50 irradiated [1]: 0.177 mg/L
NR50 non-irradiated [1]: >10 mg/L
Quotient non-irradiated/irradiated PIF [1]: >56

COc1ccc(-c2nc3n(c2-c2ccc(OC)cc2)CCS3(=O)=O)cc1 [4,5-bis(4-methoxyphenyl)-imidazo[1,2-a]thiolane-1-dioxide]
Production of leukotriene B4 in granulocytes [2]: considerably reduced
Inhibition of LTB4 release [2]: improved inhibition of LTB4 release
NR50 irradiated [1]: 7.77 mg/L
NR50 non-irradiated [1]: >50 mg/L
Phototoxicity in comparison to the non-oxidized comparative compound [1]: considerably reduced phototoxicity
Quotient non-irradiated/irradiated PIF [1]: >6.4
Production of prostaglandin E2 in fibroblasts [3]: considerably reduced
Inhibition of PGE2 production [3]: sufficient inhibition in the concentration range below one microgram per millimeter

COc1ccc(-c2nc3n(c2-c2ccc(OC)cc2)CC[S+]3[O-])cc1 (stereo not shown) [4,5-bis(4-methoxyphenyl)-imidazo[1,2-a]thiolane-1-oxide]
Production of leukotriene B4 in granulocytes [2]: considerably reduced
Inhibition of LTB4 release [2]: improved inhibition of LTB4 release
NR50 irradiated [1]: >42.3 mg/L
NR50 non-irradiated [1]: >100 mg/L
Phototoxicity in comparison to the non-oxidized comparative compound [1]: considerably reduced phototoxicity
Quotient non-irradiated/irradiated PIF [1]: >2.4
Production of prostaglandin E2 in fibroblasts [3]: considerably reduced
Inhibition of PGE2 production [3]: sufficient inhibition in the concentration range below one microgram per millimeter
